Data from article PMC9064246 (RSC Advances, 2019).

Molecular target: T1, Lactobacillus reuteri 121 inulosucrase (LrInu; InuΔ699His) (Limosilactobacillus reuteri, UniProt Q8GP32)
T1 sequence (Q8GP32 37-699 limits assumed): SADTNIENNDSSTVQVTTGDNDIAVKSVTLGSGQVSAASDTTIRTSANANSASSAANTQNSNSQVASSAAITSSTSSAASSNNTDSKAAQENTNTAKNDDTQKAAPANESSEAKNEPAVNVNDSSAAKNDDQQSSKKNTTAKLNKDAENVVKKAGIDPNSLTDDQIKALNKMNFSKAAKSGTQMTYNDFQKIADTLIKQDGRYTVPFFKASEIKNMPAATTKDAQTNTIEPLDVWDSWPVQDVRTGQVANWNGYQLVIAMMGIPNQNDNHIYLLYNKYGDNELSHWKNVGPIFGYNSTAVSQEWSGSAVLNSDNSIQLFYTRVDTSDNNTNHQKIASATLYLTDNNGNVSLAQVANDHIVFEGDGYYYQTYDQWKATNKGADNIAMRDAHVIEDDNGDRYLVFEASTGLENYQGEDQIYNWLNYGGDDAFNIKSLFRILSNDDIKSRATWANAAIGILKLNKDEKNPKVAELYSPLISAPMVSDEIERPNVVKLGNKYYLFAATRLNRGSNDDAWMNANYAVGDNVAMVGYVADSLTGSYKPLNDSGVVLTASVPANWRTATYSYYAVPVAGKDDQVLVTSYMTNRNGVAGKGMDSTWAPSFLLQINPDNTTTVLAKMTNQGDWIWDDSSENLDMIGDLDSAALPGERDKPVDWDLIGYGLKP
Experiment: FOS synthesis, TLC / HPLC / MALDI-TOF MS
Assay type: biochemical
Settings: 0.5 M sucrose, 5 U/mL enzyme, 50 mM acetate pH 5.5, 30 °C, 24 h

OC[C@H]1O[C@@](CO)(O[C@H]2O[C@H](CO)[C@@H](O)[C@H](O)[C@H]2O)[C@@H](O)[C@@H]1O [sucrose]
FOS synthesis, TLC / HPLC / MALDI-TOF MS: transglycosylation products of R483A, R483F, R483Y and R483W
